Counter-ions that a name gives are not always drawn.
Tests used:
Assay type in all cases: cell-based, Staphylococcus aureus
vraR transcription = experiment: Tertiary screen: qRT-PCR of vraR in strain 923; conditions: for Effect on vraSR Transcription: Compound alone: compound 10 μM, no oxacillin; for Effect on vraSR Transcription: With oxacillin: compound 10 μM + oxacillin 2 μg/mL; for classification of lux screen result against qRT-PCR (true/false repressor or stimulator): in the presence of oxacillin
[1] = system: vraSR transcription (Pvra::lux); conditions: compound 10 μM + oxacillin 2 μg/mL; for RL avg (relative luminescence): ratio of LU to oxacillin alone, four runs
Method: (§1) In the secondary screen each microtiter plate contained either cells in TSB alone (16 replicates), cells with oxacillin (2 μg/mL, 31 replicates), or cells with test compound and oxacillin (2 μg/mL, 49 wells). Each compound was assayed in four separate biological replicates.
(§2) All compounds classified in the primary screen as synergists that were vraSR-stimulating or -repressing (as shown in Table 8) were screened in a secondary assay for their effects on both growth and Pvra::lux induction by oxacillin. […] Each compound was tested four separate times at 10 μM in the presence of oxacillin (2 μg/mL) and luminescence was measured every 15 minutes. Relative growth (RG) and relative luminescence (RL) was calculated as the ratio between the OD600 or max LU value in the presence of compound and oxacillin over the average from pooled control values obtained from the same plate. […] Compounds that produced an average RG (ratio of the OD600 of the culture grown with test compound combined with oxacillin to that of oxacillin alone) of <0.8 were classified as oxacillin synergists or potentiators. The relative luminescence (RL) was the ratio of the LU produced in the presence of the test compound combined with oxacillin to that produced by oxacillin alone. Compounds were classified as “vraSR repressors” (mean RL of <0.8), “vraSR stimulators”, (mean RL>1.2), and “vraSR neutral” (mean RL between 0.80-1.2). […] In contrast, 34 compounds had no effect on growth in the presence of oxacillin (“un” in the OD600 category). Among the oxacillin potentiators, there were 2 vraSR stimulators, 3 vraSR neutral compounds and 10 vraSR repressors.

[2] = system: MRSA strain USA300 Pvra-lux; conditions: compound 10 μM + oxacillin 2 μg/mL; for RG avg (relative growth): ratio of OD600 to oxacillin alone, four runs
Method: as §1, §2

Compound | Effect on vraSR Transcription: Compound alone (vraR transcription; qRT-PCR of vraR) | Effect on vraSR transcription [1] | RL avg (relative luminescence) [1] | OD600 category [2] | RG avg (relative growth) [2] | Effect on vraSR Transcription: With oxacillin (vraR transcription; qRT-PCR of vraR, hydrochloride) | Effect on vraSR Transcription: With oxacillin (vraR transcription; qRT-PCR of vraR) | Effect on vraSR Transcription: With oxacillin (vraR transcription; qRT-PCR of vraR, listed as diethylstilbesterol) | Effect on vraSR transcription (summary) (vraR transcription; qRT-PCR of vraR, alone and with oxacillin) | Effect on vraSR Transcription: With oxacillin (vraR transcription; qRT-PCR of vraR, listed as fluspirilene) | classification of lux screen result against qRT-PCR (true/false repressor or stimulator) (vraR transcription)
CCCCc1oc2ccccc2c1C(=O)c1cc(I)c(OCCN(CC)CC)c(I)c1 [Amiodarone hydrochloride] | stimulate | stimulate (“vraSR stimulators”, (mean RL>1.2)) | 0.68 | inhibited (of <0.8 were classified as oxacillin synergists or potentiators) | 0.84 |  |  |  |  |  | 
CCN1CCN(C(=O)N[C@@H](C(=O)N[C@@H]2C(=O)N3C(C(=O)O)=C(CSc4nnnn4C)CS[C@H]23)c2ccc(O)cc2)C(=O)C1=O [Cefoperazone dihydrate] | stimulate | neutral (“vraSR neutral” (mean RL between 0.80-1.2)) | 0.77 | inhibited (of <0.8 were classified as oxacillin synergists or potentiators) | 0.79 |  |  |  |  |  | 
CN(C)CCn1nnnc1SCC1=C(C(=O)O)N2C(=O)[C@@H](NC(=O)Cc3csc(N)n3)[C@H]2SC1 [Cefotiam hydrochloride] | stimulate | neutral (“vraSR neutral” (mean RL between 0.80-1.2)) | 0.64 | inhibited (of <0.8 were classified as oxacillin synergists or potentiators) | 0.64 | vraR activator |  |  |  |  | 
CC(=O)OCC1=C(C(=O)O)N2C(=O)[C@@H](NC(=O)Cc3cccs3)[C@H]2SC1 [Cephalothin sodium salt] | stimulate | neutral (“vraSR neutral” (mean RL between 0.80-1.2)) | 0.36 | inhibited (of <0.8 were classified as oxacillin synergists or potentiators) | 0.45 |  |  |  |  |  | 
CC/C(=C(/CC)c1ccc(O)cc1)c1ccc(O)cc1 [Diethylstilbestrol] | None | repress (“vraSR repressors” (mean RL of <0.8)) | 0.26 | inhibited (of <0.8 were classified as oxacillin synergists or potentiators) | 0.41 |  | super-stimulate | enhanced oxacillin's effect on vraR transcription |  |  | 
O=C1NCN(c2ccccc2)C12CCN(CCCC(c1ccc(F)cc1)c1ccc(F)cc1)CC2 [Fluspirilen] | none | stimulate (“vraSR stimulators”, (mean RL>1.2)) | 0.28 | inhibited (of <0.8 were classified as oxacillin synergists or potentiators) | 0.47 |  | vraR neutral |  | No effect | none | 
C#C[C@]1(O)CC[C@H]2[C@@H]3CCC4=CCCC[C@@H]4[C@H]3CC[C@@]21C [Lynestrenol] | stimulate | repress (“vraSR repressors” (mean RL of <0.8)) | 0.26 | inhibited (of <0.8 were classified as oxacillin synergists or potentiators) | 0.47 |  |  |  |  |  | 
CC1CS(=O)(=O)CCN1/N=C/c1ccc([N+](=O)[O-])o1 (centres unmarked) [Nifurtimox] |  | repress (“vraSR repressors” (mean RL of <0.8)) | 0.95 | un (no effect on growth in the presence of oxacillin (“un” in the OD600 category)) | 0.97 |  |  |  |  |  | 
C[C@@H]1[C@H](O)[C@@H](C)/C=C/C=C/CC/C=C/C=C/C=C/C=C/C(O[C@H]2O[C@H](C)[C@@H](O)[C@H](N)[C@@H]2O)CC2O[C@](O)(CC(O)C(O)CCC(O)CC(O)CC(O)CC(=O)O[C@H]1C)CC(O)C2C(=O)O (some centres unmarked) [Nystatine] |  | neutral (“vraSR neutral” (mean RL between 0.80-1.2)) | 1.04 | un (no effect on growth in the presence of oxacillin (“un” in the OD600 category)) | 1.00 |  |  |  |  |  | 
CO[C@H]1C[C@H](O[C@H]2[C@H](C)[C@@H](O[C@@H]3O[C@H](C)C[C@H](N(C)C)[C@H]3O)[C@@H](C)C[C@@]3(CO3)C(=O)[C@H](C)[C@@H](O)[C@@H](C)[C@@H](C)OC(=O)[C@@H]2C)O[C@@H](C)[C@@H]1O [Oleandomycin phosphate, (3R,5R,6S,7R,8R,11R,12S,13R,14S,15S)-14-((2S,3R,4S,6R)-4-(dimethylamino)-3-hydroxy-6-methyltetrahydro-2H-pyran-2-yloxy)-6-hydroxy-12-((2R,4S,5S,6S)-5-hydroxy-4-methoxy-6-methyltetrahydro-2H-pyran-2-yloxy)-5,7,8,11,13,15-hexamethyl-1,9-dioxaspiro[2.13]hexadecane-4,10-dione] |  | repress (“vraSR repressors” (mean RL of <0.8)) | 0.20 | inhibited (of <0.8 were classified as oxacillin synergists or potentiators) | 0.19 |  | repress |  |  |  | true vraSR expression repressors
CCN(CC)CCc1nc(-c2ccccc2)no1.O=C(O)CC(O)(CC(=O)O)C(=O)O [Oxalamine citrate salt] |  | neutral (“vraSR neutral” (mean RL between 0.80-1.2)) | 1.00 | un (no effect on growth in the presence of oxacillin (“un” in the OD600 category)) | 1.03 |  |  |  |  |  | 
CC(Oc1ccccc1)C(=O)N[C@@H]1C(=O)N2[C@@H]1SC(C)(C)[C@@H]2C(=O)O (some centres unmarked) [Phenethicillin potassium salt] |  | neutral (“vraSR neutral” (mean RL between 0.80-1.2)) | 0.88 | un (no effect on growth in the presence of oxacillin (“un” in the OD600 category)) | 0.94 |  |  |  |  |  | 
CN(C)CCCN1c2ccccc2Sc2ccccc21 [Promazine hydrochloride] |  | neutral (“vraSR neutral” (mean RL between 0.80-1.2)) | 1.08 | un (no effect on growth in the presence of oxacillin (“un” in the OD600 category)) | 1.09 |  |  |  |  |  | 
O=C(c1ccc(OCCN2CCCCC2)cc1)c1c(-c2ccc(O)cc2)sc2cc(O)ccc12 [Raloxifene hydrochloride] |  | neutral (“vraSR neutral” (mean RL between 0.80-1.2)) | 0.85 | un (no effect on growth in the presence of oxacillin (“un” in the OD600 category)) | 0.97 |  |  |  |  |  | 
C[n+]1cc2c3c(ccc2c2ccc4cc5c(cc4c21)OCO5)OCO3 [Sanguinarine] |  | repress (“vraSR repressors” (mean RL of <0.8)) | 0.47 | inhibited (of <0.8 were classified as oxacillin synergists or potentiators) | 0.78 |  |  |  |  |  | 
CN[C@@H]1[C@H](O)[C@H](NC)[C@H]2O[C@@]3(O)C(=O)C[C@@H](C)O[C@H]3O[C@@H]2[C@H]1O [Spectinomycin dihydrochloride] |  | neutral (“vraSR neutral” (mean RL between 0.80-1.2)) | 0.77 | un (no effect on growth in the presence of oxacillin (“un” in the OD600 category)) | 0.89 |  |  |  |  |  | 
Cc1ccnc(NS(=O)(=O)c2ccc(N)cc2)n1 [Sulfamerazine] |  | neutral (“vraSR neutral” (mean RL between 0.80-1.2)) | 1.01 | un (no effect on growth in the presence of oxacillin (“un” in the OD600 category)) | 0.99 |  |  |  |  |  | 
NS(=O)(=O)c1cc2c(cc1Cl)NC(C(Cl)Cl)NS2(=O)=O (centres unmarked) [Trichlormethiazide] |  | neutral (“vraSR neutral” (mean RL between 0.80-1.2)) | 1.06 | un (no effect on growth in the presence of oxacillin (“un” in the OD600 category)) | 1.10 |  |  |  |  |  | 
OC(Cn1cncn1)(Cn1cncn1)c1ccc(F)cc1F [fluconazole] |  |  |  |  |  |  |  |  |  |  | false stimulator
Trimeprazine tartrate |  | neutral (“vraSR neutral” (mean RL between 0.80-1.2)) | 0.96 | un (no effect on growth in the presence of oxacillin (“un” in the OD600 category)) | 1.04 |  |  |  |  |  | 

— patent US20150283120A1, “ANTIBIOTIC METHODS AND COMPOSITIONS FOR BACTERIA INFECTIONS” (THE UNIVERSITY OF CHICAGO, priority 2012, published 2015)
